Reference: patent US8299056B2 (Signal Pharmaceuticals, LLC, priority 2008, dated 2012)
Where two headings read alike, the source gives them in different places.

Biological target: T1, Syk (Homo sapiens, UniProt P43405)
T1 construct: purchased Carna Biosciences
Test: Syk HTRF assay
Assay type: biochemical
Outline: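 Read-out is the 665 nm/615 nm time-resolved fluorescence ratio after EDTA stop and Eu-anti-phosphotyrosine plus streptavidin-DyLight 647 detection. Reaction ran 1 h at room temperature with start mix of 87.5 μM ATP and 80 nM substrate peptide in pH 7.6 HEPES/MgCl2 buffer.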

[1] = activity levels A-D, read-out: Activity Level (IC50 in the Syk HTRF assay)
[2] = IC50 activity level, read-out: Activity Level
[3] = read-out: Activity Level (Syk HTRF assay IC50)

Row | Compound | IC50 [1] [nM] | IC50 [2] [nM] | IC50 [3] [nM]
1 | CC1(C)C(=O)Nc2cc(Nc3nc4cccc(CC5CCOC5)n4n3)ccc21 (single isomer, unassigned; enantiomer 1) [Example 561, 3,3-dimethyl-6-(5-((tetrahydrofuran-3-yl)methyl)-[1,2,4]triazolo[1,5-a]pyridin-2-ylamino)indolin-2-one (enantiomer 1)] |  | 0.005 to 250 | 
2 | c1ccc(Nc2nc3cccc(-c4ccncc4)n3n2)cc1 [Example 528, N-phenyl-5-(pyridin-4-yl)-[1,2,4]triazolo[1,5-a]pyridin-2-amine] |  | 250 to 500 | 
3 | O[C@@H]1CCN(c2cccc3nc(Nc4ccc(C(F)(F)F)cc4)nn23)C1 [Example 332, (R)-1-(2-(4-(trifluoromethyl)phenylamino)-[1,2,4]triazolo[1,5-a]pyridin-5-yl)pyrrolidin-3-ol] | 500 to 1000 |  | 
4 | c1ccc(-c2cccc3nc(Nc4ccc5oncc5c4)nn23)cc1 [compound 43, N-(5-phenyl-[1,2,4]triazolo[1,5-a]pyridin-2-yl)benzo[d]isoxazol-5-amine] |  |  | 0.005 to 250
5 | CC(O)c1nc2ccc(-c3cccc4nc(Nc5ccc(C(F)(F)F)cc5)nn34)cc2[nH]1 (stereo not shown) [Example 402, 1-(6-(2-(4-(trifluoromethyl)phenylamino)-[1,2,4]triazolo[1,5-a]pyridin-5-yl)-1H-benzo[d]imidazol-2-yl)ethanol] |  | 0.005 to 250 | 
6 | c1ccc(Nc2nc3cccc(OC4CCCCC4)n3n2)cc1 [Example 510] |  | 1000 to 10000 | 
7 | Cc1nc2ccc(Nc3nc4cccc(-c5cccc(O)c5)n4n3)cc2[nH]1 [compound 10, 3-(2-(2-methyl-1H-benzo[d]imidazol-6-ylamino)-[1,2,4]triazolo[1,5-a]pyridin-5-yl)phenol] |  |  | 0.005 to 250
8 | CC1(C)C(=O)Nc2cc(Nc3nc4cccc(C(O)C5CCOCC5)n4n3)ccc21 (stereo not shown) [Example 173, 6-(5-(hydroxy(tetrahydro-2H-pyran-4-yl)methyl)-[1,2,4]triazolo[1,5-a]pyridin-2-ylamino)-3,3-dimethylindolin-2-one] |  |  | 250 to 500
9 | CC(C)n1ncc2ccc(Nc3nc4cccc(CN5CCNC(=O)C5)n4n3)cc21 [Example 188, 4-((2-(1-isopropyl-1H-indazol-6-ylamino)-[1,2,4]triazolo[1,5-a]pyridin-5-yl)methyl)piperazin-2-one] |  |  | 0.005 to 250
10 | CC1(C)C(=O)Nc2cc(Nc3nc4cccc(C[C@H]5CC[C@](C)(O)CC5)n4n3)ccc21 [Example 140, cis-6-(5-((4-hydroxy-4-methylcyclohexyl)methyl)-[1,2,4]triazolo[1,5-a]pyridin-2-ylamino)-3,3-dimethylindolin-2-one] |  |  | 0.005 to 250
11 | c1cc(NC2CCCNC2)n2nc(Nc3ccc(N4CCOCC4)nc3)nc2c1 (stereo in doubt) [Example 411, (S)-N^2-(6-morpholinopyridin-3-yl)-N^5-(piperidin-3-yl)-[1,2,4]triazolo[1,5-a]pyridine-2,5-diamine] |  | 0.005 to 250 | 
12 | C[C@H](Cc1cccc2nc(Nc3ccccc3)nn12)C(N)=O [Example 460, (R)-2-methyl-3-(2-(phenylamino)-[1,2,4]triazolo[1,5-a]pyridin-5-yl)propanamide] |  | 1000 to 10000 | 
13 | NCCNc1cc(-c2cccc3nc(Nc4ccccc4)nn23)ccn1 [Example 447, N^1-(4-(2-(phenylamino)-[1,2,4]triazolo[1,5-a]pyridin-5-yl)pyridin-2-yl)ethane-1,2-diamine] |  | 0.005 to 250 | 
14 | NC(=O)c1ccc(Nc2nc3cccc(-c4ccccc4)n3n2)cc1 [Example 88] |  |  | 0.005 to 250
15 | c1ccc(Nc2nc3cccc(Oc4ccccc4)n3n2)cc1 [Example 503, 5-phenoxy-N-phenyl-[1,2,4]triazolo[1,5-a]pyridin-2-amine] |  | 1000 to 10000 | 
16 | CNC(=O)c1ccc(Nc2nc3cccc(-c4cc(Cl)cc(-c5ccccc5C(N)=O)c4)n3n2)cc1 [compound 5, 3′-chloro-5′-(2-(4-(methylcarbamoyl)phenylamino)-[1,2,4]triazolo[1,5-a]pyridin-5-yl)biphenyl-2-carboxamide] |  |  | 0.005 to 250
17 | CO[C@H]1CC[C@@H](N(C)c2cccc3nc(Nc4ccc(C(F)(F)F)cc4)nn23)CC1 [Example 265, cis-N^5-(4-methoxycyclohexyl)-N^5-methyl-N^2-(4-(trifluoromethyl)phenyl)-[1,2,4]triazolo[1,5-a]pyridine-2,5-diamine] | 1000 to 10000 |  | 
18 | Cc1cc(Nc2nc3cccc(Cc4ccnc(O)c4)n3n2)cc2[nH]ncc12 [compound 124, 4-((2-(4-methyl-1H-indazol-6-ylamino)-[1,2,4]triazolo[1,5-a]pyridin-5-yl)methyl)pyridine-2-ol] |  |  | 0.005 to 250
19 | c1ccc(Nc2nc3cccc(-c4ccc5cn[nH]c5c4)n3n2)cc1 [Example 485, 5-(1H-indazol-6-yl)-N-phenyl-[1,2,4]triazolo[1,5-a]pyridin-2-amine] |  | 0.005 to 250 | 
20 | OC1CN(c2cccc3nc(Nc4ccc(C(F)(F)F)cc4)nn23)C1 [Example 287, 1-(2-(4-(trifluoromethyl)phenylamino)-[1,2,4]triazolo[1,5-a]pyridin-5-yl)azetidin-3-ol] | 0.005 to 250 |  | 
21 | CNC(=O)c1ccc(Nc2nc3cccc(-c4cccnc4)n3n2)cc1 [Example 325, N-methyl-4-(5-(pyridin-3-yl)-[1,2,4]triazolo[1,5-a]pyridin-2-ylamino)benzamide] | 500 to 1000 |  | 
22 | O=C1NCCC1NCc1cccc2nc(Nc3ccc(C(F)(F)F)cc3)nn12 (racemic) [Example 207, (±)-3-((2-(4-(trifluoromethyl)phenylamino)-[1,2,4]triazolo[1,5-a]pyridin-5-yl)methylamino)pyrrolidin-2-one] | 1000 to 10000 |  | 

Next, values leading:

Row | IC50 [1] [nM] | IC50 [2] [nM] | IC50 [3] [nM] | Compound
23 | 0.005 to 250 |  |  | O[C@@H]1CCC[C@@H](Nc2cccc3nc(Nc4ccc(C(F)(F)F)cc4)nn23)C1 (single isomer, unassigned; enantiomer 1) [Example 225, trans-3-(2-(4-(trifluoromethyl)phenylamino)-[1,2,4]triazolo[1,5-a]pyridin-5-ylamino)cyclohexanol (enantiomer 1)]
24 |  |  | 0.005 to 250 | Cc1cc(Nc2nc3cccc(NC4CCOCC4)n3n2)cc2c1cnn2C [Example 148, N^2-(1,4-dimethyl-1H-indazol-6-yl)-N^5-(tetrahydro-2H-pyran-4-yl)-[1,2,4]triazolo[1,5-a]pyridin-2,5-diamine]
25 |  | 0.005 to 250 |  | O[C@H]1CC[C@@H](Nc2cccc3nc(Nc4ccc(C(F)(F)F)cc4)nn23)C1 (stereo in doubt) [Example 418, (1S,3R)-3-(2-(4-(trifluoromethyl)phenylamino)-[1,2,4]triazolo[1,5-a]pyridin-5-ylamino)cyclopentanol]
26 | 1000 to 10000 |  |  | Oc1cccc(Nc2nc3cccc(N[C@H]4CC[C@@H](O)CC4)n3n2)n1 [Example 305, cis-6-(5-(4-hydroxycyclohexylamino)-[1,2,4]triazolo[1,5-a]pyridin-2-ylamino)pyridin-2-ol]
27 |  |  | 500 to 1000 | CC1(C)NC(=O)c2cc(Nc3nc4cccc(N[C@H]5CC[C@H](O)CC5)n4n3)ccc21 (stereo in doubt) [Example 137, trans-6-(5-(4-hydroxycyclohexylamino)-[1,2,4]triazolo[1,5-a]pyridin-2-ylamino)-3,3-dimethylisoindolin-1-one]
28 | 500 to 1000 |  |  | O[C@H]1CCC[C@H](Nc2cccc3nc(Nc4ccc(C(F)(F)F)cc4)nn23)C1 (racemic) [Example 373, (±)trans-3-(2-(4-(trifluoromethyl)phenylamino)-[1,2,4]triazolo[1,5-a]pyridin-5-ylamino)cyclohexanol]
29 |  | 0.005 to 250 |  | Cn1c(=O)[nH]c2cc(Nc3nc4cccc(N[C@H]5CC[C@@H](O)CC5)n4n3)ccc21 [Example 570, cis-5-(5-(4-hydroxycyclohexylamino)-[1,2,4]triazolo[1,5-a]pyridin-2-ylamino)-1-methyl-1H-benzo[d]imidazol-2(3H)-one]
30 | 500 to 1000 |  |  | O[C@H]1CC[C@@H](Nc2cccc3nc(Nc4ccnc(OCCN5CCCC5)c4)nn23)CC1 [Example 293, cis-4-(2-(2-(2-(pyrrolidiun-1-yl)ethoxy)pyridin-4-ylamino)-[1,2,4]triazolo[1,5-a]pyridin-5-ylamino)cyclohexanol]
31 |  |  | 250 to 500 | COCc1nc2ccc(Nc3nc4cccc(NC5CCOCC5)n4n3)cc2[nH]1 [Example 142, N^2-(2-(methoxymethyl)-1H-benzo[d]imidazol-6-yl)-N^5-(tetrahydro-2H-pyran-4-yl)-[1,2,4]triazolo[1,5-a]pyridine-2,5-diamine]
32 | 250 to 500 |  |  | NC(=O)c1cccc(Nc2nc3cccc(N[C@H]4CC[C@@H](O)CC4)n3n2)c1 [Example 337, cis-3-(5-(4-hydroxycyclohexylamino)-[1,2,4]triazolo[1,5-a]pyridin-2-ylamino)benzamide]
33 | 500 to 1000 |  |  | Cc1cc(Nc2nc3cccc(N[C@H]4CC[C@@H](O)CC4)n3n2)ccn1 [Example 367, cis-4-(2-(2-methylpyridin-4-ylamino)-[1,2,4]triazolo[1,5-a]pyridin-5-ylamino)cyclohexanol]
34 | 0.005 to 250 |  |  | O[C@H]1CC[C@@H](Nc2cccc3nc(Nc4ccc(N5CCOCC5)nc4)nn23)CC1 [Example 313, cis-4-(2-(6-morpholinopyridin-3-ylamino)-[1,2,4]triazolo[1,5-a]pyridin-5-ylamino)cyclohexanol]
35 |  |  | 0.005 to 250 | CN1C(=O)C(C)(C)c2ccc(Nc3nc4cccc(NC5CCOCC5)n4n3)cc21 [Example 151, 1,3,3-trimethyl-6-(5-(tetrahydro-2H-pyran-4-ylamino)-[1,2,4]triazolo[1,5-a]pyridin-2-ylamino)indolin-2-one]
36 |  | 500 to 1000 |  | OC[C@H]1CC[C@H](Nc2cccc3nc(Nc4ccc(C(F)(F)F)cc4)nn23)CC1 (stereo in doubt) [Example 414, trans-(4-(2-(4-(trifluoromethyl)phenylamino)-[1,2,4]triazolo[1,5-a]pyridin-5-ylamino)cyclohexyl)methanol]
37 |  |  | 0.005 to 250 | CCn1nc(C)c2ccc(Nc3nc4cccc(N[C@H]5CC[C@@H](O)CC5)n4n3)cc21 [Example 197, cis-4-(2-(1-ethyl-3-methyl-1H-indazol-6-ylamino)-[1,2,4]triazolo[1,5-a]pyridin-5-ylamino)cyclohexanol]
